The source of these data is patent US9434711B2 (Janssen Pharmaceutica, NV, priority 2007, dated 2016).

The test deals with canine TRPM8 (Canis lupus familiaris, UniProt Q1A7N1). The test can be described thus: In Vitro Canine TRPM8 Functional Assay (Ca2+ fluorescence, icilin activation). It is filed as cell-based. The following applies: for IC50: read-out: IC50; for inhibition at 0.5 µM: compound at 0.5 μM, read-out: % Inh @ 0.5; for inhibition at 0.2 µM: read-out: % Inh @ 0.2. Put shortly:
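Canine TRPM8 stably expressed in HEK293; compound added 5 min before icilin challenge (~80% max response), with fluorescent Ca2+ signal tracked throughout.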

[1] abbreviates: HEK293 cells stably expressing canine TRPM8, icilin activation, eight-point dose-response.
Setting [2] is: canine TRPM8, icilin activation.
Where [3] appears, read: compound at 0.2 μM, canine TRPM8, icilin activation.
The mark [4] stands for this setting: 0.2 μM compound, HEK293 cells stably expressing canine TRPM8, icilin activation.
Where [5] appears, read: HEK293 cells stably expressing canine TRPM8, icilin activation, average of two or more determinations.

SMILES strings stand for the structures. Like-named read-outs stand apart in the source and are kept apart here.

Chain of canine TRPM8 (Q1A7N1 1-1104): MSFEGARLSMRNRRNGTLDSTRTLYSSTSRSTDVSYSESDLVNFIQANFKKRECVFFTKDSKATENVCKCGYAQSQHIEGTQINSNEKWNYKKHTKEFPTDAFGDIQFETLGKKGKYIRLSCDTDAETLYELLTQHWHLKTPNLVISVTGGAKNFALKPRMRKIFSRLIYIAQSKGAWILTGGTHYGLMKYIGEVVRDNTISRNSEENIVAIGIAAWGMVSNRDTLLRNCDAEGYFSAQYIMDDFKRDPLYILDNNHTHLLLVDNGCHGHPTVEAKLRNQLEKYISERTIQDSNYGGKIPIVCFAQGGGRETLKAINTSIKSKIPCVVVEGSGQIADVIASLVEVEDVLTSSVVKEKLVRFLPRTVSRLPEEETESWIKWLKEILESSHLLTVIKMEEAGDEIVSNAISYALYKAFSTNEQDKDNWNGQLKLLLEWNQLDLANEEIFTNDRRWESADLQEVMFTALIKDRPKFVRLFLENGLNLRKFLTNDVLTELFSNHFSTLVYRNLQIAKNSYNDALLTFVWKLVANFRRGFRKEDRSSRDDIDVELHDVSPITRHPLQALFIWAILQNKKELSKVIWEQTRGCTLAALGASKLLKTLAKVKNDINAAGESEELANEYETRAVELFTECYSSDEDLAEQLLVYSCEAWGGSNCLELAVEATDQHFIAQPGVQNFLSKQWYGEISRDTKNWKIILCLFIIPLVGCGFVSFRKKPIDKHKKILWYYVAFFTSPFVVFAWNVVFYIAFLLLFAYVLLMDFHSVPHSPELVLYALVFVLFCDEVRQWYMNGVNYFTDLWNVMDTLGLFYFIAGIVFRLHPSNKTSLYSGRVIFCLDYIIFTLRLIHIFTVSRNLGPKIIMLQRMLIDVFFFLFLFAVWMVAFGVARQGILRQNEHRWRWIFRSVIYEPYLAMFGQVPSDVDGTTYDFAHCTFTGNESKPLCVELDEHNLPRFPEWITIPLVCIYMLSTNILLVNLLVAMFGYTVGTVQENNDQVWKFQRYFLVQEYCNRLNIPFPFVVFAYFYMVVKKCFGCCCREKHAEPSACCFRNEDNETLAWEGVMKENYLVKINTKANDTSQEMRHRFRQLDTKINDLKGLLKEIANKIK

By IC50 is commonly meant the concentration needed to halve the response being measured. With `CC(C)(C)OC(=O)NCCN(c1sc2ccccc2c1Cl)S(=O)(=O)c1ccccc1` [Compound 86, N-(3-Chloro-benzo[b]thiophen-2-yl)-N-[2-(carbo-tert-butoxyamino)ethyl]-benzenesulfonamide], the IC50 under setting [1] came to 53 nM. Moreover, the inhibition at 0.5 µM under setting [2] was found to be 101%. Turning to `Cc1c(N(Cc2ccc(F)c(C(F)(F)F)c2)S(=O)(=O)c2cccc3nccnc23)sc2ccccc12` [Compound 723, N-(3-Methyl-benzo[b]thiophen-2-yl)-N-(4-fluoro-3-trifluoromethyl-benzyl)-quinoxalin-5-yl-sulfonamide], the IC50 under setting [1] is 18 nM. Besides, the inhibition at 0.2 µM under setting [3] stood at 102%.

Turning to `CCCCN(c1sc2ccccc2c1C(C)(C)O)S(=O)(=O)c1ccc(C(=O)O)cc1` [Compound 343, N-(Butyl)-N-(3-(1-hydroxy-1-methyl-ethyl)-benzo[b]thiophen-2-yl)-4-carboxy-benzenesulfonamide], under setting [1], the IC50 is 19 nM. Further, under setting [3], the inhibition at 0.2 µM was found to be 98%.

Regarding `CC(=O)c1c(N(Cc2ccc(F)c(C(F)(F)F)c2)S(=O)(=O)c2ccc(C#N)cc2)sc2ccccc12` [Compound 387, N-(3-Acetyl-benzo[b]thiophen-2-yl)-4-cyano-N-(4-fluoro-3-trifluoromethyl-benzyl)-benzenesulfonamide], under setting [1], the IC50 worked out at 31 nM. In addition, the inhibition at 0.2 µM under setting [3] is 98%. Turning to `Cc1c(N(Cc2ccc(F)c(C(F)(F)F)c2)S(=O)(=O)c2c(Cl)nc3sccn23)sc2ccccc12` [Compound 337], the IC50 under setting [1] is 19 nM. The “% Inh @ 0.2 (μM)” value under setting [3] was 101%. Consider `Nc1ccc(S(=O)(=O)N(CCC(F)(F)F)c2sc3ccccc3c2Br)cc1Br` [Compound 588, 4-Amino-3-bromo-N-(3-bromo-benzo[b]thiophen-2-yl)-N-(3,3,3-trifluoro-propyl)-benzenesulfonamide], for which the IC50 under setting [1] was 12.1 nM. The inhibition at 0.2 µM under setting [3] came to 101%. In the same order, the values of `Cc1c(N(Cc2cccc(OC(F)(F)F)c2)S(=O)(=O)CCCn2ccnc2)sc2ccccc12` [Compound 778, N-(3-Methyl-benzo[b]thiophen-2-yl)-N-(3-trifluoromethoxy-benzyl)-3-imidazol-1-yl-propane-1-sulfonamide] are 107 nM and 87%.

Consider `O=S(=O)(c1ccccc1)N(Cc1ccc(F)cc1)c1sc2ccccc2c1Br` [Compound 140, N-(3-Bromo-benzo[b]thiophen-2-yl)-N-(4-fluoro-benzyl)-benzenesulfonamide], for which, under setting [1], the IC50 worked out at 2 nM. The inhibition at 0.5 µM under setting [2] was 98%. Turning to `Cc1c(N(CCCCC(F)(F)F)S(=O)(=O)c2nc3ccccc3[nH]2)sc2ccccc12` [Compound 720, N-(3-Methyl-benzo[b]thiophen-2-yl)-N-(5,5,5-trifluoro-pentyl)-1H-benzimidazole-2-sulfonamide], under setting [3], the inhibition at 0.2 µM worked out at 52%. For the compound `CC(=O)c1ccc(S(=O)(=O)N(Cc2ccc(F)c(C(F)(F)F)c2)c2sc3ccccc3c2C(C)(C)O)cc1` [Compound 389, 4-Acetyl-N-(4-fluoro-3-trifluoromethylbenzyl)-N-(3-(1-hydroxy-1-methyl-ethyl)-benzo[b]thiophen-2-yl)-benzenesulfonamide], the IC50 under setting [1] turned out to be 10 nM. The inhibition at 0.2 µM under setting [3] is 97%. As for `O=S(=O)(c1ccccc1)N(Cc1cccnc1)c1sc2ccccc2c1Br` [Compound 169, N-(3-Bromo-benzo[b]thiophen-2-yl)-N-(pyridin-3-ylmethyl)-benzenesulfonamide], under setting [1], the IC50 was 21.4 nM. Also, under setting [2], the inhibition at 0.5 µM is 98%.

For the compound `Cc1c(N(Cc2ccc(OC(F)(F)F)cc2)S(=O)(=O)c2ccc(-c3noc(=O)[nH]3)cc2)sc2ccccc12` [Compound 801, N-(3-Methyl-benzo[b]thiophen-2-yl)-N-(4-trifluoromethoxy-benzyl)-4-(5-oxo-4,5-dihydro-[1,2,4]oxadiazol-3-yl)-benzenesulfonamide], the inhibition at 0.2 µM under setting [4] is 102%. Further, the IC50 under setting [5] amounted to 2.8 nM.

As to `CCCCN(c1sc2ccccc2c1C=O)S(=O)(=O)c1ccc(C(=O)OC)cc1` [Compound 419, N-(Butyl)-N-(3-formyl-benzo[b]thiophene-2-yl)-4-carbomethoxy-benzenesulfonamide], the IC50 under setting [1] stood at 345 nM. Further, under setting [3], the inhibition at 0.2 µM worked out at 74%. For the compound `O=S(=O)(c1ccc(O)cc1)N(Cc1ccc(F)c(C(F)(F)F)c1)c1sc2ccccc2c1Br` [Compound 290, N-(3-Bromo-benzo[b]thiophen-2-yl)-N-(4-fluoro-3-trifluoromethyl-benzyl)-4-hydroxy-benzenesulfonamide], the IC50 under setting [1] amounted to 5.3 nM. In addition, under setting [3], the inhibition at 0.2 µM was found to be 103%. Regarding `COC(=O)c1ccc(S(=O)(=O)N(CCCCC(F)(F)F)c2sc3ccccc3c2C)cc1` [Compound 631, N-(3-Methyl-benzo[b]thiophen-2-yl)-N-(5,5,5-trifluoro-pentyl)-4-carbomethoxy-benzenesulfonamide], the IC50 under setting [1] amounted to 26.3 nM. The inhibition at 0.2 µM under setting [3] came out at 103%. For `CCS(=O)(=O)N(Cc1ccc(F)c(C(F)(F)F)c1)c1sc2ccccc2c1C=O` [Compound 210, N-(4-Fluoro-3-trifluoromethyl-benzyl)-N-(3-formyl-benzo[b]thiophen-2-yl)-ethanesulfonamide] the same measures were 8 nM and 91%. Regarding `O=S(=O)(c1ccc(-c2nnn[nH]2)cc1)N(CCC1CC1)c1sc2ccccc2c1Br` [Compound 594, N-(3-Bromo-benzo[b]thiophen-2-yl)-N-(2-cyclopropyl-ethyl)-4-(1H-tetrazol-5-yl)-benzenesulfonamide], the inhibition at 0.2 µM under setting [3] came out at 101%. In the case of `O=S(=O)(c1ccccc1)N(Cc1cccc(OC(F)(F)F)c1)c1cc2ccccc2s1` [Compound 57, N-(Benzo[b]thiophen-2-yl)-N-(3-trifluoromethoxy-benzyl)-benzenesulfonamide], under setting [1], the IC50 was determined as 108 nM. Further, the inhibition at 0.5 µM under setting [2] was 100%.

For the compound `CCS(=O)(=O)N(Cc1ccc(F)c(C(F)(F)F)c1)c1sc2ccccc2c1CN(C)C` [Compound 346, N-(3-Dimethylaminomethyl-benzo[b]thiophen-2-yl)-N-(4-fluoro-3-trifluoromethyl-benzyl)-ethanesulfonamide], under setting [1], the IC50 stood at 43.8 nM. For the same compound, the inhibition at 0.2 µM under setting [3] amounted to 95%.

In the case of `CCCCN(c1sc2ccccc2c1C)S(=O)(=O)c1ccc(-c2noc(=O)[nH]2)cc1` [Compound 541, N-(3-Methyl-benzo[b]thiophen-2-yl)-N-(butyl)-4-(5-oxo-4,5-dihydro-[1,2,4]oxadiazol-3-yl)-benzenesulfonamide], under setting [1], the IC50 was 10.8 nM. Also, the inhibition at 0.2 µM under setting [3] was 105%. In the case of `O=c1[nH]c(-c2ccc(S(=O)(=O)N(CCC(F)(F)F)c3sc4ccccc4c3Br)cc2)no1` [Compound 608, N-(3-Bromo-benzo[b]thiophen-2-yl)-N-(3,3,3-trifluoro-propyl)-4-(5-oxo-4,5-dihydro-[1,2,4]oxadiazol-3-yl)-benzenesulfonamide], the inhibition at 0.2 µM under setting [3] was found to be 101%. On to `Cc1c(N(Cc2cccnc2)S(=O)(=O)c2ccc(C(=O)O)cc2)sc2ccccc12` [Compound 495, N-(3-Methyl-benzo[b]thiophen-2-yl)-N-(pyridin-3-ylmethyl)-4-carboxy-benzenesulfonamide], for which the IC50 under setting [1] is 55 nM. For the same compound, the “% Inh @ 0.2 (μM)” value under setting [3] stood at 98%. On to `Cc1c(N(Cc2ccc(F)c(C(F)(F)F)c2)S(=O)(=O)c2ccc(-c3nnn[nH]3)cc2)sc2ccccc12` [Compound 542, N-(3-Methyl-benzo[b]thiophen-2-yl)-N-(4-fluoro-3-trifluoromethyl-benzyl)-4-(1H-tetrazol-5-yl)-benzenesulfonamide], for which, under setting [1], the IC50 was 2.3 nM. Besides, the inhibition at 0.2 µM under setting [3] is 105%. In the same order, the values of `COC(=O)c1ccc(S(=O)(=O)N(CCCCC(F)(F)F)c2sc3ccccc3c2C(C)C)cc1` [Compound 565, N-(3-Isopropyl-benzo[b]thiophen-2-yl)-N-(5,5,5-trifluoro-pentyl)-4-carbomethoxy-benzenesulfonamide] are 117 nM and 74.4%.

As for `Cc1c(N(CCC2CC2)S(=O)(=O)c2ccc(-c3noc(=O)[nH]3)nc2)sc2ccccc12` [Compound 807], the inhibition at 0.2 µM under setting [4] amounted to 103%. The IC50 under setting [5] was 6 nM.

For `COc1ccc(S(=O)(=O)N(Cc2ccc(F)c(C(F)(F)F)c2)c2sc3ccccc3c2C)cn1` [Compound 359], the IC50 under setting [1] worked out at 17 nM. Moreover, the inhibition at 0.2 µM under setting [3] amounted to 93%.

Regarding `O=S(=O)(CC(F)(F)F)N(Cc1ccc(F)c(C(F)(F)F)c1)c1cc2ccccc2s1` [Compound 697, N-(Benzo[b]thiophen-2-yl)-N-(4-fluoro-3-trifluoromethyl-benzyl)-2,2,2-trifluoro-ethanesulfonamide], the IC50 under setting [1] turned out to be 64 nM. In addition, the inhibition at 0.2 µM under setting [3] was 92%. Regarding `Cc1c(N(CCCCC(F)(F)F)S(=O)(=O)CC(F)(F)F)sc2ccccc12` [Compound 673, N-(3-Methyl-benzo[b]thiophen-2-yl)-N-(5,5,5-trifluoro-pentyl)-2,2,2-trifluoro-ethanesulfonamide], the inhibition at 0.2 µM under setting [3] was 94.4%.

On to `CCCS(=O)(=O)N(Cc1ccc(F)c(F)c1)c1sc2ccccc2c1Br` [Compound 153, N-(3-Bromo-benzo[b]thiophen-2-yl)-N-(3,4-difluoro-benzyl)-propane-1-sulfonamide], for which the IC50 under setting [1] is 18.8 nM. Besides, under setting [2], the inhibition at 0.5 µM is 97%. Turning to `Cc1c(N(CCCCC(F)(F)F)S(=O)(=O)c2ccc(-c3nnn[nH]3)nc2)sc2ccccc12` [Compound 806], under setting [4], the inhibition at 0.2 µM came out at 102%.

Take `O=S(=O)(c1ccccc1)N(Cc1ccccc1F)c1sc2ccccc2c1Br` [Compound 166, N-(3-Bromo-benzo[b]thiophen-2-yl)-N-(2-fluoro-benzyl)-benzenesulfonamide]: the IC50 under setting [1] came to 11.4 nM. The inhibition at 0.5 µM under setting [2] amounted to 94%.
